Counter-ions that a name gives are not always drawn.
What was measured:
Phytophthora infestans = assay: whole plant or invertebrate; type: in vivo; conditions: for pest or weed control at 150 ppm: Phytophthora infestans, in Solanum lycopersicum, foliar, read-out: Percent Disease Control, foliar, tomato late blight, 150 ppm, protective; for Percent Disease Control, foliar, tomato late blight: 150 ppm, protective
Rhizoctonia solani = assay: Mycelial growth test; type: cell-based; conditions: RS; for inhibition at 5 ppm / inhibition at 10 ppm / inhibition at 20 ppm / inhibition at 40 ppm: Rhizoctonia solani, 72 h, read-out: Percent Fungus Growth Inhibition; for Percent Fungus Growth Inhibition: 72 hours
Text: | RS = Rhizoctonia solani

SMILES	pest or weed control at 150 ppm (Phytophthora infestans) [%]	inhibition at 5 ppm (Rhizoctonia solani) [%]	inhibition at 10 ppm (Rhizoctonia solani; 10 ppm) [%]	inhibition at 20 ppm (Rhizoctonia solani; 20 ppm) [%]	inhibition at 40 ppm (Rhizoctonia solani; 40 ppm) [%]	Percent Disease Control, foliar, tomato late blight (Phytophthora infestans) [%]	Percent Fungus Growth Inhibition (Rhizoctonia solani; 10 ppm) [%]	Percent Disease Control, foliar, tomato late blight (Phytophthora infestans; hydrochloride) [%]	Percent Fungus Growth Inhibition (Rhizoctonia solani; 10 ppm, hydrochloride) [%]	Percent Fungus Growth Inhibition (Rhizoctonia solani; 20 ppm, hydrochloride) [%]	Percent Fungus Growth Inhibition (Rhizoctonia solani; 40 ppm, hydrochloride) [%]
O=c1c(Cl)nsnc1Oc1cccc(Cl)c1 [Compound 13, 3-chloro-5-(3-chlorophenoxy)-4H--1,2,6-thiadiazin-4-one]	98	24	53	69	76	–	–	–	–	–	–
O=c1c(Cl)nsnc1Oc1ccccc1Cl [Compound 14, 3-chloro-5-(2-chlorophenoxy)-4H--1,2,6-thiadiazin-4-one]	0	53	56	76	91	–	–	–	–	–	–
O=c1c(Cl)nsnc1Oc1ccc(Br)cc1 [Compound 15, 3-chloro-5-(4-bromophenoxy)-4H--1,2,6-thiadiazin-4-one]	100	13	38	38	53	–	–	–	–	–	–
O=c1c(Cl)nsnc1Oc1ccc(Cl)c(Cl)c1 [Compound 16, 3-chloro-5-(3,4-dichlorophenoxy)-4H--1,2,6-thiadiazin-4-one]	0	29	31	31	69	–	–	–	–	–	–
O=c1c(Cl)nsnc1Oc1ccc(Cl)cc1Cl [Compound 17, 3-chloro-5-(2,4-dichlorophenoxy)-4H--1,2,6-thiadiazin-4-one]	100	40	53	76	76	–	–	–	–	–	–
O=c1c(Cl)nsnc1Oc1c(Cl)cccc1Cl [Compound 18, 3-chloro-5-(2,6-dichlorophenoxy)-4H--1,2,6-thiadiazin-4-one]	50	42	56	76	87	–	–	–	–	–	–
O=c1c(Cl)nsnc1Oc1cccc(Cl)c1Cl [Compound 19, 3-chloro-5-(2,3-dichlorophenoxy)-4H--1,2,6-thiadiazin-4-one]	0	29	47	69	82	–	–	–	–	–	–
O=c1c(Cl)nsnc1Oc1cc(Cl)cc(Cl)c1 [Compound 20, 3-chloro-5-(3,5-dichlorophenoxy)-4H--1,2,6-thiadiazin-4-one]	0	51	58	76	78	–	–	–	–	–	–
Cc1cccc(Oc2nsnc(Cl)c2=O)c1 [Compound 21, 3-chloro-5-(3-methylphenoxy)-4H--1,2,6-thiadiazin-4-one]	50	53	64	87	100	–	–	–	–	–	–
Cc1ccccc1Oc1nsnc(Cl)c1=O [Compound 22, 3-chloro-5-(2-methylphenoxy)-4H--1,2,6-thiadiazin-4-one]	0	42	62	91	100	–	–	–	–	–	–
Cc1ccc(Oc2nsnc(Cl)c2=O)c(C)c1 [Compound 23, 3-chloro-5-(2,4-dimethylphenoxy)-4H--1,2,6-thiadiazin-4-one]	0	20	53	73	78	–	–	–	–	–	–
Cc1cccc(C)c1Oc1nsnc(Cl)c1=O [Compound 24, 3-chloro-5-(2,6-dimethylphenoxy)-4H--1,2,6-thiadiazin-4-one]	98	20	64	82	100	–	–	–	–	–	–
Cc1cc(C)cc(Oc2nsnc(Cl)c2=O)c1 [Compound 25, 3-chloro-5-(3,5-dimethylphenoxy)-4H--1,2,6-thiadiazin-4-one]	100	20	64	80	78	–	–	–	–	–	–
Nc1ccc(Oc2nsnc(Cl)c2=O)cc1 [Compound 26, 5-(4-aminophenoxy)-3-chloro-4H--1,2,6-thiadiazin-4-one]	–	0	–	42	76	0	53	–	–	–	–
Nc1ccc(Oc2nsnc(Cl)c2=O)cc1 [Compound 27, 5-(4-aminophenoxy)-3-chloro-4H--1,2,6-thiadiazine-4-one hydrochloride]	–	–	–	–	–	–	–	98	31	24	64
CNC(=O)Nc1ccc(Oc2nsnc(Cl)c2=O)cc1 [Compound 28, 3-chloro-5-[4-(3-methylureido)-phenoxy]-4H--1,2,6-thiadiazin-4-one]	90	20	47	24	47	–	–	–	–	–	–
O=C(Nc1ccccc1)Nc1ccc(Oc2nsnc(Cl)c2=O)cc1 [Compound 29, 3-chloro-5-[4-(3-phenylureido)-phenoxy]-4H--1,2,6-thiadiazin-4-one]	100	0	31	0	29	–	–	–	–	–	–
O=c1c(Cl)nsnc1Oc1c(Cl)cc(Cl)cc1Cl [Compound 30, 3-chloro-5-(2,4,6-trichlorophenoxy)-4H--1,2,6-thiadiazin-4-one]	0	42	62	69	80	–	–	–	–	–	–
O=c1c(Cl)nsnc1Oc1c(Cl)c(Cl)c(Cl)c(Cl)c1Cl [Compound 31, 3-chloro-5-(pentachlorophenoxy)-4H--1,2,6-thiadiazine-4-one]	0	53	69	73	76	–	–	–	–	–	–
O=c1c(Cl)nsnc1Oc1cccc2ccccc12 [Compound 32, 3-chloro-5(1-naphthoxy)-4H-1,2,6-thiadiazin-4-one]	0	76	42	69	73	–	–	–	–	–	–
O=c1c(Cl)nsnc1Oc1ccccc1Br [Compound 34, 3-chloro-5-(2-bromophenoxy)-4H-1,2,6,-thiadiazin-4-one]	0	24	64	76	100	–	–	–	–	–	–
O=c1c(Cl)nsnc1Oc1ccc(O)cc1 [Compound 35, 3-chloro-5-(4-hydroxyphenoxy)-4H-1,2,6-thiadiazin-4-one]	100	0	7	44	76	–	–	–	–	–	–
O=C(Nc1ccccc1)Oc1ccc(Oc2nsnc(Cl)c2=O)cc1 [Compound 37, 3-chloro-5-[4-(phenylaminocarbonyloxy)phenoxy]-4H-1,2,6,-thiadiazin-4-one]	0	11	42	31	51	–	–	–	–	–	–
O=C(OCc1ccccc1)Oc1ccc(Oc2nsnc(Cl)c2=O)cc1 [Compound 38, 3-chloro-5-[4-(phenylmethoxycarbonyloxy)phenoxyl]-4H-1,2,6-thiadiazin-4-one]	0	0	0	7	33	–	–	–	–	–	–
CSc1ccc(Oc2nsnc(Cl)c2=O)cc1 [Compound 39, 3-chloro-5-[(4-methylthio)phenoxy]-4H-1,2,6,-thiadiazin-4-one]	0	24	31	31	42	–	–	–	–	–	–
C[S+]([O-])c1ccc(Oc2nsnc(Cl)c2=O)cc1 (stereo not shown) [Compound 40, 3-chloro-5-[(4-methylsulfinyl)phenoxy]-4H-1,2,6,-thiadiazin-4-one]	75	0	0	24	53	–	–	–	–	–	–
CC(=O)Nc1cccc(Oc2nsnc(Cl)c2=O)c1 [Compound 42, 3-[(3-N--acetylamino)-phenoxy]-5-chloro-4H--1,2,6-thiadiazin-4-one]	0	0	4	31	67	–	–	–	–	–	–
CC(=O)Nc1ccccc1Oc1nsnc(Cl)c1=O [Compound 43, 3-[(2-acetylamino)-phenoxy]-5-chloro-4H--1,2,6-thiadiazin-4-one]	0	0	0	11	24	–	–	–	–	–	–

From patent US4450269A, “Mono-5-substituted-3-chloro-4H-1,2,6-thiadiazin-4-one antifungal agents” (FMC Corporation, priority 1980, dated 1984)
